Measured values from ChEMBL document CHEMBL5236657, “Synthesis and pharmacological validation of a novel radioligand for the orphan GPR88 receptor” (Bioorg Med Chem Lett, 2023).

Legend:
[1] = target: T1, G protein-coupled receptor 88 (Homo sapiens, UniProt Q9GZN0)
Description: Agonist activity at GPR88 (unknown origin) transfected in HEK293 cells assessed as cAMP level by GloSensor cAMP assay

[2] = target: T1, G protein-coupled receptor 88; remark: listed apart in the source
Description: Displacement of [3H]RTI-33 from GPR88 (unknown origin) by competition binding assay

T1 sequence (Q9GZN0 whole entry): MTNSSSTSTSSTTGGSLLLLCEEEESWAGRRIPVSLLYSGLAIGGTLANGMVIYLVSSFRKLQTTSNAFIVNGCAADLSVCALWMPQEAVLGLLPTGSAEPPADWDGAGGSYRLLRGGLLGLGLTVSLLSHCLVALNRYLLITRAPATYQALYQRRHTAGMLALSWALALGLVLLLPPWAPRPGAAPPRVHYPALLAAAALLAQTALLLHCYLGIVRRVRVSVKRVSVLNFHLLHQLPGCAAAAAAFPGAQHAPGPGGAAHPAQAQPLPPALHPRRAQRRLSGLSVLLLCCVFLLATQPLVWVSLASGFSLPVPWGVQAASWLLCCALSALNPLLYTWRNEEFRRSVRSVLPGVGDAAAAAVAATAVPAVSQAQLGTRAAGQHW

EC50 [1]: 0.304 µM | Ki [2]: 0.219 µM
Compound: CCCC(C)COc1ccc([C@H](CN)NC(=O)[C@@H](C)c2ccccc2)cc1 (some centres not stated)
